Source: patent publication US20130210786A1, “TREATMENT OF L-DOPA, DOPAMINE AGONIST AND/OR DOPAMINE ENHANCER INDUCED DISORDERS” (priority 2010, published 2013)

Experiments:
MPTP-lesioned macaques [1] = test: L-DOPA induced dyskinesia (LID) in MPTP-lesioned macaques, monkey dyskinesia rating scale; type: in vivo, Macaca fascicularis; settings: for % reduction in LID compared to corresponding vehicle group / Number of LID events in each stated time period (hours) post challenge 0-1 / Number of LID events in each stated time period (hours) post challenge 1-2 / Number of LID events in each stated time period (hours) post challenge 2-3 / Number of LID events in each stated time period (hours) post challenge 3-4 / Number of LID events in each stated time period (hours) post challenge 4-5 / Number of LID events in each stated time period (hours) post challenge 5-6 / Number of LID events post challenge Total: smilagenin 20 mg/kg/day p.o. 18 weeks, then 10 week washout; for Number of LID events in each stated time period (hours) post challenge 0-1: 0-1 h; for Number of LID events in each stated time period (hours) post challenge 1-2: 1-2 h; for Number of LID events in each stated time period (hours) post challenge 2-3: 2-3 h; for Number of LID events in each stated time period (hours) post challenge 3-4: 3-4 h; for Number of LID events in each stated time period (hours) post challenge 4-5: 4-5 h; for Number of LID events in each stated time period (hours) post challenge 5-6: 5-6 h; for Number of LID events post challenge Total: total 0-6 h
Experimental: Ten female cynomolgus monkeys (macaques) (Macaca fascicularis, 3.0-4.5 kg, 4-6 years old) were acclimatised to the experimental setting and procedures for 3 months and baseline behaviour was assessed in all animals. The macaques received MPTP (0.2 mg/kg/day, s.c.) until moderate-marked, stable, parkinsonian symptoms developed.
Following stabilisation of parkinsonian disability, the macaques were administered L-DOPA (Madopar, 20 mg/kg b.i.d., p.o.) for 19 weeks before being administered L-DOPA+vehicle (hydroxypropylmethylcellulose, HPMC, 0.5% w/v containing Tween 80, 0.2% v/v, group 1, n=5) or L-DOPA+smilagenin (20 mg/kg/day, p.o., group 2, n=5) for a further 18 weeks. Smilagenin was then washed out for 10 weeks and all the macaques received only L-DOPA twice daily over this 10 week period.
Following the 10 week washout, the macaques were challenged with L-DOPA (6, 12, 20, 30 or 40 mg/kg, p.o.) or vehicle and the level of dyskinesia over the subsequent 6 h period was assessed by a neurologist blinded to treatment using a monkey dyskinesia rating scale. […] Each macaque received a challenge once every 3 days and received every challenge (vehicle and L-DOPA, 6, 12, 20, 30 or 40 mg/kg) in a randomised order over the course of the experiment. On the days between challenges, the macaques received L-DOPA (20 mg/kg, b.i.d., p.o.) as normal.
The MPTP-lesioned and L-DOPA treated macaques used in this experiment provide an accepted model for L-DOPA-induced dyskinesia.

MPTP-lesioned macaques [2] = test: On-time (time without bradykinesia) in MPTP-lesioned macaques after L-DOPA challenge; type: in vivo, Macaca fascicularis; settings: for Minutes spent in on time (mean ± s.e. mean): 6 h observation; for Minutes spent in on time (mean ± s.e. mean) / Percent on-time normalised to 0 mg/kg L-DOPA (mean ± s.e. mean): smilagenin 20 mg/kg/day p.o. 18 weeks, then 10 week washout
Experimental: Analysis was performed using a two-way ANOVA with group and L-DOPA dose as factors.

[3] = Total across all L-DOPA challenge doses (0-40 mg/kg)

## C[C@@H]1CC[C@@]2(OC1)O[C@H]1C[C@H]3[C@@H]4CC[C@@H]5C[C@@H](O)CC[C@]5(C)[C@H]4CC[C@]3(C)[C@H]1[C@@H]2C [Smilagenin, smilagenin]
MPTP-lesioned macaques [1]; Across all doses of L-DOPA
  % reduction in LID compared to corresponding vehicle group: 53%
MPTP-lesioned macaques [1]; L-DOPA challenge 0 mg/kg
  Number of LID events in each stated time period (hours) post challenge 0-1: 0
  Number of LID events in each stated time period (hours) post challenge 1-2: 0
  Number of LID events in each stated time period (hours) post challenge 2-3: 0
  Number of LID events in each stated time period (hours) post challenge 3-4: 0
  Number of LID events in each stated time period (hours) post challenge 4-5: 0
  Number of LID events in each stated time period (hours) post challenge 5-6: 0
  % reduction in LID compared to corresponding vehicle group: 0%
  Number of LID events post challenge Total: 0
MPTP-lesioned macaques [1]; L-DOPA challenge 6 mg/kg p.o.
  Number of LID events in each stated time period (hours) post challenge 0-1: 0
  Number of LID events in each stated time period (hours) post challenge 1-2: 0
  Number of LID events in each stated time period (hours) post challenge 2-3: 0
  Number of LID events in each stated time period (hours) post challenge 3-4: 0
  Number of LID events in each stated time period (hours) post challenge 4-5: 0
  Number of LID events in each stated time period (hours) post challenge 5-6: 0
  % reduction in LID compared to corresponding vehicle group: 0%
  Number of LID events post challenge Total: 0
MPTP-lesioned macaques [1]; L-DOPA challenge 12 mg/kg p.o.
  Number of LID events in each stated time period (hours) post challenge 0-1: 0
  Number of LID events in each stated time period (hours) post challenge 1-2: 0
  Number of LID events in each stated time period (hours) post challenge 2-3: 0
  Number of LID events in each stated time period (hours) post challenge 3-4: 0
  Number of LID events in each stated time period (hours) post challenge 4-5: 0
  Number of LID events in each stated time period (hours) post challenge 5-6: 0
  % reduction in LID compared to corresponding vehicle group: 100%
  Number of LID events post challenge Total: 0
MPTP-lesioned macaques [1]; L-DOPA challenge 20 mg/kg p.o.
  Number of LID events in each stated time period (hours) post challenge 0-1: 8
  Number of LID events in each stated time period (hours) post challenge 1-2: 29
  Number of LID events in each stated time period (hours) post challenge 2-3: 6
  Number of LID events in each stated time period (hours) post challenge 3-4: 0
  Number of LID events in each stated time period (hours) post challenge 4-5: 0
  Number of LID events in each stated time period (hours) post challenge 5-6: 0
  % reduction in LID compared to corresponding vehicle group: 52%
  Number of LID events post challenge Total: 43
MPTP-lesioned macaques [1]; L-DOPA challenge 30 mg/kg p.o.
  Number of LID events in each stated time period (hours) post challenge 0-1: 3
  Number of LID events in each stated time period (hours) post challenge 1-2: 29
  Number of LID events in each stated time period (hours) post challenge 2-3: 11
  Number of LID events in each stated time period (hours) post challenge 3-4: 0
  Number of LID events in each stated time period (hours) post challenge 4-5: 0
  Number of LID events in each stated time period (hours) post challenge 5-6: 0
  % reduction in LID compared to corresponding vehicle group: 76%
  Number of LID events post challenge Total: 43
MPTP-lesioned macaques [1]; L-DOPA challenge 40 mg/kg p.o.
  Number of LID events in each stated time period (hours) post challenge 0-1: 8
  Number of LID events in each stated time period (hours) post challenge 1-2: 56
  Number of LID events in each stated time period (hours) post challenge 2-3: 48
  Number of LID events in each stated time period (hours) post challenge 3-4: 14
  Number of LID events in each stated time period (hours) post challenge 4-5: 0
  Number of LID events in each stated time period (hours) post challenge 5-6: 0
  % reduction in LID compared to corresponding vehicle group: 27%
  Number of LID events post challenge Total: 126
MPTP-lesioned macaques [1]; [3]
  Number of LID events in each stated time period (hours) post challenge 0-1: 19
  Number of LID events in each stated time period (hours) post challenge 1-2: 114
  Number of LID events in each stated time period (hours) post challenge 2-3: 65
  Number of LID events in each stated time period (hours) post challenge 3-4: 14
  Number of LID events in each stated time period (hours) post challenge 4-5: 0
  Number of LID events in each stated time period (hours) post challenge 5-6: 0
  Number of LID events post challenge Total: 212
MPTP-lesioned macaques [1]; group 2 (L-DOPA+smilagenin), challenge with L-DOPA 6 or 12 mg/kg, 6 h
  Dyskinesia following challenge with L-DOPA: no dyskinesia was observed
MPTP-lesioned macaques [1]; group 2 (L-DOPA+smilagenin), challenge with L-DOPA at 20, 30 or 40 mg/kg
  Dyskinesia following challenge with L-DOPA, compared to group 1 (vehicle): less dyskinesia compared to group 1
MPTP-lesioned macaques [2]; L-DOPA dose 0 mg/kg
  Minutes spent in on time (mean ± s.e. mean): 114 ± 43 min
  Percent on-time normalised to 0 mg/kg L-DOPA (mean ± s.e. mean): 100%
MPTP-lesioned macaques [2]; L-DOPA dose 6 mg/kg
  Minutes spent in on time (mean ± s.e. mean): 134 ± 43 min
  Percent on-time normalised to 0 mg/kg L-DOPA (mean ± s.e. mean): 118 ± 32%
MPTP-lesioned macaques [2]; L-DOPA dose 12 mg/kg
  Minutes spent in on time (mean ± s.e. mean): 126 ± 35 min
  Percent on-time normalised to 0 mg/kg L-DOPA (mean ± s.e. mean): 111 ± 28%
MPTP-lesioned macaques [2]; L-DOPA dose 20 mg/kg
  Minutes spent in on time (mean ± s.e. mean): 178 ± 29 min
  Percent on-time normalised to 0 mg/kg L-DOPA (mean ± s.e. mean): 156 ± 16%
MPTP-lesioned macaques [2]; L-DOPA dose 30 mg/kg
  Minutes spent in on time (mean ± s.e. mean): 224 ± 13 min
  Percent on-time normalised to 0 mg/kg L-DOPA (mean ± s.e. mean): 196 ± 6%
MPTP-lesioned macaques [2]; L-DOPA dose 40 mg/kg
  Minutes spent in on time (mean ± s.e. mean): 230 ± 24 min
  Percent on-time normalised to 0 mg/kg L-DOPA (mean ± s.e. mean): 202 ± 10%
MPTP-lesioned macaques [2]; two-way ANOVA with group and L-DOPA dose as factors, p>0.05
  Total on-time, smilagenin group versus vehicle group: not significantly different
